Results published in US5340925A, “Normal human growth regulatory receptor for TGF-β” (Oncogen, priority 1992, dated 1994).
Where two headings read alike, the source gives them in different places.

Tests used:
[1] = test system: HEPM cell-surface receptors for TGF-β; test: Radioreceptor assay: [125I]-iodo-TGF-β1 in competition with unlabeled TGF-β1, Scatchard analysis; format: binding, human; details: comparison of growth stimulation and receptor binding, FIG. 6
Procedure: (§1) HEPM cells were grown to confluence (1×10^5 cells/well) in 24-well Costar tissue culture plates. Prior to the binding assay, cells were pre-incubated in serum-free growth medium at 37° C. for 4 hours to allow for the dissociation of TGF-β from occupied cells surface receptors. The resulting monolayers were washed 2 times in binding buffer (Dulbecco's MEM+0.1% BSA+25 mM HEPES). 250 μl of binding buffer containing 0.5 μg/ml [^125 I]-iodoTGF-β1, (specific activity of 100 μCi/μg) together with increasing amounts of unlabeled TGF-β1 were added to duplicate wells. Steady state binding was carried out at 4° C. for 3 hours. After incubation cells were washed 3 times with cold binding buffer and solubilized in 200 μl of Triton solution (20 mM HEPES, 1% Triton X-100, 10% glycerol, 0.01% BSA, pH 7.4). Radioactivity was determined using a gamma spectrometer. Non-specific binding was determined in the presence of a 1,000-fold molar excess unlabeled TGF-β1.
(§2) The radioreceptor assay described in Materials and Methods was used to characterize the affinity and number of cell-surface receptors for TGF-β on HEPM cells. Specific binding of [^125 I]-iodo-TGF-βin these assays was 20% of the total radioligand present. […] Half-maximal displacement of radioligand occurred at 100 pM (2.6 ng/ml) unlabeled TGF-β1. Competitive binding data were plotted according to the method of Scatchard (Scatchard, et al., 1947, Ann. NY Acad Sci 51:660-672) and the results are presented in FIG. 5. A distinctly curvilinear isotherm was obtained indicating the presence of at least two classes of binding sites on HEPM cells. […] Quantitative analysis determined that HEPM cells contain a total of 287,000 TGF-β receptors per cell (55,400 high affinity and 231,600 low affinity sites).

[2] = target: T1, HEPM cell-surface receptors for TGF-β (Homo sapiens, UniProt Q03167); test: as above; format: binding; details: untreated HEPM cells, Scatchard two-site model
T1 construct: endogenous in cells; host or cells: HEPM (human embryonic palatal mesenchyme) cells, intact monolayers
T1 sequence (Q03167 21-851): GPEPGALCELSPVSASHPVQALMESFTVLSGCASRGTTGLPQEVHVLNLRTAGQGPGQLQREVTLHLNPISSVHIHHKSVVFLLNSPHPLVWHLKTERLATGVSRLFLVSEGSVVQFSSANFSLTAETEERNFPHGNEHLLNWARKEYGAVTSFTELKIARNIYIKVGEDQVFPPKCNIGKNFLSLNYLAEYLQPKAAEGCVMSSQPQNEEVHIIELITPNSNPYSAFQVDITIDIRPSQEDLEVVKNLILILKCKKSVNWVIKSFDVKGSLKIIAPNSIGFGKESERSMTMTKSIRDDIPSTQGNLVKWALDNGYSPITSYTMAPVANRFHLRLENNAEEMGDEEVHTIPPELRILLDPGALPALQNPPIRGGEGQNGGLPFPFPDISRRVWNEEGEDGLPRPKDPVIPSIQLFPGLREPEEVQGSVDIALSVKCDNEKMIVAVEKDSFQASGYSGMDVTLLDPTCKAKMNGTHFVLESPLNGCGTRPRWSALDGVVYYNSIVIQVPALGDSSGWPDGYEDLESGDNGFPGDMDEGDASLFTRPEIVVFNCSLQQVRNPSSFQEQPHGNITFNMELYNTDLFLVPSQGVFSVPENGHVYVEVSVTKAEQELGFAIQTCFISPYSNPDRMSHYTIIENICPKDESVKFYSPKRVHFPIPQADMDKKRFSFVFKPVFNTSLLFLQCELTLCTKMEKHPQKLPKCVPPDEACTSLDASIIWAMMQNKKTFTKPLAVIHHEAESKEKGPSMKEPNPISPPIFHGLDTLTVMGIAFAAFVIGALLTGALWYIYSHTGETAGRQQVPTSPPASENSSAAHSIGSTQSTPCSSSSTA
Procedure: as §1, §2

HEPM cells [3] = test: Co-stimulation with EGF assay (radionuclide incorporation into DNA); format: cell-based, human
Procedure: Quiescent HEPM cells were stimulated to proliferate by the addition of fetal bovine serum (15 μ) and test samples of TGF-β2 (50 μl) and/or EGF (50 μl), resulting in a total assay volume of 165 μl. The amount of cell growth was measured by the amount of radionuclide incorporated into the DNA of actively growing cells.
The response of HEPM cells to TGF-β treatment in the presence of EGF was determined by radiolabeling the DNA of dividing cells as described in Materials and Methods. A suboptimal dose of TGF-β2 was analyzed for growth stimulatory activity in the presence of EGF. […] HEPM cells treated with both EGF and TGF-β2 at the same doses gave a 511% stimulation, a potentiated response of 340% over that expected from the sum of the two individual responses.

HEPM cells [4] = test: Growth stimulation assay: incorporation of 5-[125I]iodo-2'-deoxyuridine into DNA of quiescent HEPM cells; format: cell-based, human; details: 66 h + 6 h radionuclide label
Procedure: FIGS. 1(A) and 1(B) Bioactivity of TGF-β on HEPM cells: incorporation of radionuclide into DNA. Results are presented as percent stimulation vs the picomolar (pM) concentration of TGF-β. Percent stimulation was calculated as follows: treated (cpm)-untreated (cpm)/untreated (cpm) x 100. Panel A: TGF-β1, treatment. Panel B: TGF-β2 treatment.
HEPM cells (5,000 cells/50 μl ) were subcultured in 96-well tissue culture plates (Falcon 30072) in growth medium comprising minimal essential medium (Gibco, Grand Island, N.Y.) supplemented with 10% heat-inactivated fetal bovine serum, 600 μg/ml L-glutamine, 500 μg/ml penicillin and 500 μg/ml streptomycin for a 24-hour period at 37° C. in a humidified 5% CO2 /95% air atosphere. A nondividing, quiescent state of growth was achieved by subsequent incubation for 48 hours in growth medium supplemented with 0.5% fetal bovine serum. Quiescent cells were then stimulated to proliferate by the addition of fetal bovine serum (10 μl ) and test samples of TGF-β1, or TGF-β2 (50 μl). The cells were incubated an additional 66 hours at 37° C. […] The amount of cell growth was measured by the amount of radionuclide incorporated into the DNA of actively growing cells.

TGF-β = target: T2, TGF-β (Homo sapiens, UniProt P01137); test: Affinity labeling of purified soluble receptor with [125I]-iodo-TGF-β, DSS cross-linking, SDS-PAGE; format: binding; details: [125I]-iodo-TGF-β with or without 1,000 ng/ml unlabeled TGF-β
T2 construct: endogenous in cells; host or cells: HEPM cells
Procedure: FIG. 10 Ability of purified TGF-β receptor to bind TGF-β. Affinity purified receptor preparations were crosslinked to bound [^125 I]-iodo-TGF-β with DSS and analyzed on SDS-PAGE. Lanes marked (-) contained only [^125 I]-iodo-TGF-β; lanes marked (+) contained [^125 I]-iodo-TGF-β in the presence of 1,000 ng/ml unlabeled TGF-β. The 240 Kd band is specifically labeled with radioligand and has the same mobility on SDS-PAGE as the receptor-TGF-β complex from cell surface membranes (see FIG. 7).
Solubilized receptor samples (50 μl) were diluted with three volumes of binding buffer containing 0.5% v/v Triton X-100 and 50 ng/ml [^125 I]-iodo-TGF-β. The samples were incubated at 4° C. for 3 hours in the presence or absence of 1,000 ng/ml unlabeled TGF-β. Four microliters (4 μl) of 10 mM DSS in DMSO were then added. After 15 minutes the unreacted DSS was quenched by adding 20 μl of 100 mM Tris/HCl pH 7.0.
Affinity-labeled samples were incubated at 4° C. for 2 hours with 15 μl of packed WGA-sepharose beads (wheat germ aglutinin-sepharose, Sigma) with end-over-end mixing. The beads were sedimented by centrifugation at 12,000 xg for 1 minute and washed three times with a buffer solution containing 0.5% v/v Triton X-100, 10 mM Tris/HCl, mM EDTA. The washed, packed beads were heated for 5 minutes at 95° C. in the presence of 20 μl of electrophoresis sample buffer containing 5% 2-mercaptoethanol. […]

T2 sequence (P01137 279-390): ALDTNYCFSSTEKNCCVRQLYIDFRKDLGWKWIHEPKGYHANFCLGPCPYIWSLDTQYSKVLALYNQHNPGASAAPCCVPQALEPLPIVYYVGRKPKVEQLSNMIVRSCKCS

TGF-β: Transforming growth factor-Beta, type not named at the place; the underlying radioreceptor and FIG. 6 data were obtained with TGF-β1
concentration to occupy all TGF-β receptor sites relative to concentration for maximal growth stimulatory response [1]: about 20 times
Kd ([2]; read-out: kd, high-affinity (low capacity) site): 0.058 nM
Kd ([2]; read-out: kd, low-affinity (high capacity) site): 0.898 nM

EGF: epidermal growth factor [reference compound]
percent stimulation (HEPM cells [3]; 13 ng/ml EGF alone): 21%

TGF-β2: polypeptide of molecular weight 26,000 composed of two identical 13,000 dalton subunits which are disulfide linked
ED50 in stimulating the proliferation of HEPM cells (half-maximal growth stimulation) (HEPM cells [4]): 0.0023 nM
percent stimulation (HEPM cells [3]; 0.3 ng/ml TGF-β2 alone (suboptimal dose)): 150%

B1: affinity purified receptor: type III TGF-β receptor affinity purified from HEPM cells, about 200-206 kd, N-terminus Lys-Tyr-Tyr-Asp-Lys-Asp-Tyr (protein, UniProt Q03167 21-851, looked up)
Transforming growth factor …: T1 sequence (Q03167 21-851)
ability of purified receptor to bind TGF-β (TGF-β): specifically bind TGF-β
